Data reported in US20250129344A1, “MODIFIED GLUTAMATE DEHYDROGENASE AND APPLICATION THEREOF” (Hunan Lier Biotech Co., Ltd., priority 2021, published 2025).
Substitutions are numbered along the chain they refer to.

Tests used:
Experiment in all cases: Dynamic properties (Michaelis-Menten) of LsGluDH mutant, PPO reductive amination
Type in all cases: biochemical
Details in all cases: PPO 5-100 mM, NADPH 0.15 mM, NH4Cl 50 mM, PBS pH 7.5, 30° C., diluted crude enzyme, 340 nm
[1] = biological target: T1, Lysinibacillus sphaericus glutamate dehydrogenase (LsGluDH, SEQ ID NO: 2) variant A175G-A182R, SEQ ID NO: 36 (Lysinibacillus pinottii, UniProt A0ABT2DNY0, A175G/A182R)
T1 sequence (A0ABT2DNY0 1-457 A175G/A182R): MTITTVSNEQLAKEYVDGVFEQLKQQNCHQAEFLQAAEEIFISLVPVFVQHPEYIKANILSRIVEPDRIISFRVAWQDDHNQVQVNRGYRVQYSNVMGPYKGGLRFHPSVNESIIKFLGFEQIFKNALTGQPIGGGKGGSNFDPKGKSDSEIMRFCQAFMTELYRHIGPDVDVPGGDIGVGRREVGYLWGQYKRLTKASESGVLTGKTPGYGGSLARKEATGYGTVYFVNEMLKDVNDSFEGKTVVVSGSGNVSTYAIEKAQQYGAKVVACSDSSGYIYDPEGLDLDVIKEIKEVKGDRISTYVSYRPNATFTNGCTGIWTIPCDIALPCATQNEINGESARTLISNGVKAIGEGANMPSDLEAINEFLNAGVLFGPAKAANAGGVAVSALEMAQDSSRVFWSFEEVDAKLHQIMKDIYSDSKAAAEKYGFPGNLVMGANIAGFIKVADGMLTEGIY
Experimental: (§1) A plurality of reaction systems (200 μL) comprising PBS of 100 mM pH 7.5 (pH was adjusted with aqueous ammonia solution), NADPH (reductive) of 0.15 mM, NH4Cl of 50 mM, diluted (500 folds) crude enzyme solution of 10% volume and the substrate PPO at various concentrations (5-100 mM) were formulated on a 96-well plate. The intensity of the UV absorption at 340 nm was detected at 30° C., and the rate of change in absorption over time (mA/min) was recorded. The obtained parameters were plugged into Michaelis-Menten equation, in which the reaction velocity was calculated with the rate of change in absorption.
(§2) The mutants were prepared with the coding nucleic acid of LsGluDH (SEQ ID NO: 2) as the template, and the enzyme activities and the dynamic parameters Vmax and Km were measured, according to the method of Example 1. The resulted mutants and the enzyme activities and the dynamic parameters thereof are shown in Table 2, and the relative enzyme activity means the percentage of the enzyme activity of the mutant to the enzyme activity of the mutant of SEQ ID NO: 31.

[2] = biological target: T2, Lysinibacillus sphaericus glutamate dehydrogenase (LsGluDH, SEQ ID NO: 2) variant A175G-I133V, SEQ ID NO: 33 (Lysinibacillus pinottii, UniProt A0ABT2DNY0, A175G/I133V)
T2 sequence (A0ABT2DNY0 1-457 A175G/I133V): T1 sequence (A0ABT2DNY0 1-457 A175G/A182R) with I133V, R182A
Experimental: as §1, §2

[3] = biological target: T3, Lysinibacillus sphaericus glutamate dehydrogenase (LsGluDH, SEQ ID NO: 2) variant A175G-P132L, SEQ ID NO: 32 (Lysinibacillus pinottii, UniProt A0ABT2DNY0, A175G/P132L)
T3 sequence (A0ABT2DNY0 1-457 P132L/A175G): T1 sequence (A0ABT2DNY0 1-457 A175G/A182R) with P132L, R182A
Experimental: as §1, §2

[4] = biological target: T4, Lysinibacillus sphaericus glutamate dehydrogenase (LsGluDH, SEQ ID NO: 2) variant A175G-V173S, SEQ ID NO: 34 (Lysinibacillus pinottii, UniProt A0ABT2DNY0, A175G/V173S)
T4 sequence (A0ABT2DNY0 1-457 V173S/A175G): T1 sequence (A0ABT2DNY0 1-457 A175G/A182R) with V173S, R182A
Experimental: as §1, §2

`CP(=O)(O)CCC(=O)C(=O)O` [PPO, 2-carbonyl-4-(hydroxymethylphosphono) butyric acid] showed a Km [1] of 38 mM, a Vmax [1] of 46 mA/min and a Km [2] of 35 mM. The Vmax [2] was 39 mA/min, the Km [3] was 35 mM and the Vmax [3] was 45 mA/min. For the same molecule, the Km [4] was 62 mM and the Vmax [4] was 106 mA/min.
